IC50 data for 9 molecules are collected here from US11236088B2, “Heterocyclic compounds and their application in medicine” (KIND PHARMACEUTICAL, priority 2017, dated 2022).

The assay relates to MCF-7 cells. The experiment in a line: Inhibitory effect on the growth of MCF-7 cells (CellTiter-Glo, 10 days). It is filed as cell-based. The following applies: Homo sapiens, MCF7, 240 h, 10 days incubation, CellTiter-Glo chemiluminescence. How it is done: Assay 2: Inhibitory effect of compounds of the present invention on the growth of MCF-7 cells by a cell drug inhibition experiment
1. Experimental Materials
1) Reagents: DMEM high glucose medium (Lonza #12-604F), FBS (BI #04-00F1ACS), antibiotics (Thermofisher #15070063), bovine insulin (Western reagent #11070-73-8), trypsin (Thermofisher #25200-056), CellTiter-Glo reagent (Promega #G7571)
2) Instruments: American MD-M5 microplate reader 5;
2. Experimental Procedures:
1) 100 μl of MCF-7 cells was added to a medium in a white opaque 96-well plate at a density of 5000 cells/ml in which the medium is DMEM high-glucose medium supplemented with 10% FBS. The cells were cultured in a 5% CO2 cell incubator at 37° C. for 24 hours.
2) Different concentrations of corresponding compounds were added to the 96-well plate for incubating MCF-7 cells. The cells were incubated for 10 days in a 5% CO2 cell incubator.
3) To each well of MCF-7 cells, 100 μl of CellTiter-Glo reagent was added and then set aside at room temperature for 10 minutes. The chemiluminescence signal was read using an MD-M5 microplate reader, and the data was processed using GraphPad Prism to calculate IC50 value.
In the case of `CCCC(=O)N1CC(Oc2cc(F)c([C@@H]3c4ccc5[nH]ncc5c4CN(C)[C@H]3CC(C)C)c(F)c2)C1` [Example 33, 1-(3-(3,5-difluoro-4-((6S, 7S)-7-isobutyl-8-methyl-6,7,8,9-tetrahydro-3H-pyrazolo [3,4-h]isoquinolin-6-yl)phenoxy)azetidin-1-yl) butan-1-one], the IC50 (as a rule, the point on the concentration scale where inhibition reaches its midpoint) was 0.01 to 1 µM. In the case of `CN1Cc2c(ccc3[nH]ncc23)[C@@H](c2c(F)cc(SC3CN(CCCF)C3)cc2F)[C@@H]1CC1CC1` [Example 25] it was 0.01 to 1 µM.

`CN1Cc2c(ccc3[nH]ncc23)[C@@H](c2c(F)cc(NC3CN(CCCF)C3)cc2F)[C@@H]1CC1CC1` [Example 5, N-(4-((6S, 7S)-7-cyclopropylmethyl-8-methyl-6,7,8,9-tetrahydro-3H-pyrazolo [3,4-h]isoquinolin-6-yl)-3,5-difluorophenyl)-1-(3-fluoropropyl) azetidin-3-amine] displayed an IC50 of over 1 µM. Turning to `CC(C)C[C@H]1[C@H](c2c(F)cc(SC3CN(CC(C)C)C3)cc2F)c2ccc3[nH]ncc3c2CN1C` [Example 13, (6S, 7S)-6-(2,6-difluoro-4-((1-isobutylazetidin-3-yl)thio)phenyl)-7-isobutyl-8-methyl-6,7,8,9-tetrahydro-3H-pyrazolo [3,4-h]isoquinoline], the IC50 fell in the range of 0.01 to 1 µM. Under `CC(C)C[C@H]1[C@H](c2c(F)cc(NC3CN(CC(C)C)C3)cc2F)c2ccc3[nH]ncc3c2CN1C` [Example 8, N-(3,5-difluoro-4-((6S, 7S)-7-isobutyl-8-methyl-6,7,8,9-tetrahydro-3H-pyrazolo [3,4-h]isoquinolin-6-yl)phenyl)-1-isobutylazetidin-3-amine] stands over 1 µM. Under `C[C@]12CC[C@@H]3c4ccc(O)cc4C[C@@H](CCCCCCCCC[S+]([O-])CCCC(F)(F)C(F)(F)F)[C@H]3[C@@H]1CC[C@@H]2O` (stereo partly drawn) [Fulvestrant, reference compound] stands 0.01 to 1 µM. In the case of `CC(C)C[C@H]1[C@H](c2c(F)cc(NC3CN(CCCF)C3)cc2F)c2ccc3[nH]ncc3c2CN1C` [Example 2, N-(3,5-difluoro-4-((6S, 7S)-7-isobutyl-8-methyl-6,7,8,9-tetrahydro-3H-pyrazolo [3,4-h]isoquinolin-6-yl)phenyl)-1-(3-fluoropropyl) azetidin-3-amine] it was at most 0.001 µM; in that of `CCCCCN1CC(Oc2cc(F)c([C@@H]3c4ccc5[nH]ncc5c4CN(C)[C@H]3CC3CC3)c(F)c2)C1` [Example 24, (6S, 7S)-7-cyclopropylmethyl-6-(2,6-difluoro-4-((1-pentylazetidin-3-yl)oxy)phenyl)-8-methyl-6,7,8,9-tetrahydro-3H-pyrazolo [3,4-h]isoquinoline], over 1 µM. `CCCCCN1CC(Sc2cc(F)c([C@@H]3c4ccc5[nH]ncc5c4CN(C)[C@H]3CC(C)C)c(F)c2)C1` [Example 14, (6S, 7S)-6-(2,6-difluoro-4-((1-pentylazetidin-3-yl)thio)phenyl)-7-isobutyl-8-methyl-6,7,8,9-tetrahydro-3H-pyrazolo [3,4-h]isoquinoline] yielded an IC50 of over 1 µM.
